The results in this text go back to patent US20230081426A1, “COMPOUNDS AND METHODS FOR KRAS MODULATION AND INDICATIONS THEREFOR” (Plexxikon Inc., priority 2020, published 2023).

The target in test [1] is T1, G12D-mutant human KRAS (amino acid residues 1-188) (Homo sapiens, UniProt P01116, G12D).
T1 construct: G12D or G12C-mutant human KRAS (amino acid residues 1-188) with FLAG tag; made in house; host or cells: E. coli
Briefly: KRAS Binding Disruption Assay (AlphaScreen; biotinylated KRpep-2d analogue or RAF1-RBD), G12D. The settings on record: KRAS G12D; geometric mean; read-out: KRAS GMean IC50 (uM) MUTATION: G12D. The essentials: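 Displacement format with mutant KRAS, biotinylated KRpep-2d analogue or RAF1-RBD (5-20 nM each) at pH 7.5 with 5 mM MgCl2.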
For orientation: Bead proximity is the source of the signal in Alpha formats.

The target in test [2] is T2, G12V-mutant human KRAS (amino acid residues 1-188) (Homo sapiens, UniProt P01116, G12V).
T2 construct: G12V-mutant human KRAS (amino acid residues 1-188) with FLAG tag was purified from E. coli; made in house; host or cells: E. coli
Briefly: KRAS Binding Competition Assay (AlphaScreen; biotinylated KRpep-2d analogue), G12V. The settings on record: geometric mean, read-out: KRAS GMean IC50 (uM) MUTATION: G12V.

The IC50 is the concentration needed to halve the response being measured. On to `OCC1(COc2nc(N3C[C@H]4CC[C@@H](C3)N4)c3ccc(-c4cc(O)cc5ccccc45)c(F)c3n2)CC1` [P-0614, 4-(4-((1R,5S)-3,8-diazabicyclo[3.2.1]octan-3-yl)-8-fluoro-2-((l (hydroxymethyl)cyclopropyl)methoxy)quinazolin-7-yl)naphthalen-2-ol], for which the IC50 in test [1] lay within 0.0001 to 10 µM; in test [2], 10 to 100 µM.
With `N#CCc1cccc2[nH]cc(-c3ccc4c(N5C[C@H]6CC[C@@H](C5)N6)nc(OCC56CCCN5CCC6)nc4c3F)c12` [P-0615, 2-(3-(4-((1R,5S)-3,8-diazabicyclo[3.2.1]octan-3-yl)-8-fluoro-2-((tetrahydro-1H-pyrrolizin-7a(5H)-yl)methoxy)quinazolin-7-yl)-1H-indol-4-yl)acetonitrile], the results for the IC50 in test [1] and in test [2] were 0.0001 to 10 µM and 10 to 100 µM, respectively.
For `CNC(=O)CCOc1nc(N2C[C@H]3CC[C@@H](C2)N3)c2ccc(-c3cc(O)cc4ccccc34)c(F)c2n1` [P-0616, 3-((4-((1R,5S)-3,8-diazabicyclo[3.2.1]octan-3-yl)-8-fluoro-7-(3-hydroxynaphthalen-1-yl)quinazolin-2-yl)oxy)-N-methylpropanamide] the same measures were 0.0001 to 10 µM and 10 to 100 µM.
On the same counts, the results for `Oc1cc(-c2ccc3c(N4C[C@H]5CC[C@@H](C4)N5)nc(OCC4CCC4O)nc3c2F)c2ccccc2c1` (stereo partly drawn) [P-0617, 4-(4-((1R,5S)-3,8-diazabicyclo[3.2.1]octan-3-yl)-8-fluoro-2-((2-hydroxycyclobutyl)methoxy)quinazolin-7-yl)naphthalen-2-ol] are 0.0001 to 10 µM and 10 to 100 µM.
For `CC(C)(CN)COc1nc(N2C[C@H]3CC[C@@H](C2)N3)c2ccc(-c3cc(O)cc4ccccc34)c(F)c2n1` [P-0618, 4-(2-(3-amino-2,2-dimethylpropoxy)-4-((1R,5S)-3,8-diazabicyclo[3.2.1]octan-3-yl)-8-fluoroquinazolin-7-yl)naphthalen-2-ol], the results for the IC50 in test [1] and in test [2] were 0.0001 to 10 µM and 10 to 100 µM, respectively.
For the compound `CC(C)(COc1nc(N2C[C@H]3CC[C@@H](C2)N3)c2ccc(-c3cc(O)cc4ccccc34)c(F)c2n1)NC(N)=O` [P-0619, 1-(1-((4-((1R,5S)-3,8-diazabicyclo[3.2.1]octan-3-yl)-8-fluoro-7-(3-hydroxynaphthalen-1-yl)quinazolin-2-yl)oxy)-2-methylpropan-2-yl)urea], the IC50 in test [1] was in the range of 0.0001 to 10 µM; in test [2] it was 10 to 100 µM.
On the same counts, the results for `CC(C)(COc1nc(N2C[C@H]3CC[C@@H](C2)N3)c2ccc(-c3cc(O)cc4ccccc34)c(F)c2n1)C(N)=O` [P-0620, 3-((4-((1R,5S)-3,8-diazabicyclo[3.2.1]octan-3-yl)-8-fluoro-7-(3-hydroxynaphthalen-1-yl)quinazolin-2-yl)oxy)-2,2-dimethylpropanamide] are 0.0001 to 10 µM and 10 to 100 µM.
Regarding `CNC(=O)C(C)(C)COc1nc(N2C[C@H]3CC[C@@H](C2)N3)c2ccc(-c3cc(O)cc4ccccc34)c(F)c2n1` [P-0621, 3-((4-((1R,5S)-3,8-diazabicyclo[3.2.1]octan-3-yl)-8-fluoro-7-(3-hydroxynaphthalen-1-yl)quinazolin-2-yl)oxy)-N,2,2-trimethylpropanamide], the results for the IC50 in test [1] and in test [2] were 0.0001 to 10 µM and 10 to 100 µM, respectively.
For `Oc1cc(-c2ccc3c(N4CC5CCC(C4)N5)nc(OCC4CCC(O)C4)nc3c2F)c2ccccc2c1` [P-0622, 4-(4-((1R,5S)-3,8-diazabicyclo[3.2.1]octan-3-yl)-8-fluoro-2-((3-hydroxycyclopentyl)methoxy)quinazo-lin-7-yl)naphthalen-2-ol] the same measures were 0.0001 to 10 µM and 10 to 100 µM.
On to `CN1CCc2c(cccc2Oc2nc(N3C[C@H]4CC[C@@H](C3)N4)c3ccc(-c4cc(O)cc5ccccc45)c(F)c3n2)C1` [P-0623, 4-(4-((1R,5S)-3,8-diazabicyclo[3.2.1]octan-3-yl)-8-fluoro-2-((2-methyl-1,2,3,4-tetrahydroisoquinolin-5-yl)oxy)quinazolin-7-yl)naphthalen-2-ol], for which the IC50 in test [1] was 0.0001 to 10 µM; in test [2] it was 10 to 100 µM.
As for `O=Cc1cccc2[nH]cc(-c3c(F)cc4c(N5C[C@H]6CC[C@@H](C5)N6)nc(OCC56CCCN5CCC6)nc4c3F)c12` [P-0624, 3-(4-((1R,5S)-3,8-diazabicyclo[3.2.1]octan-3-yl)-6,8-difluoro-2-((tetrahydro-1H-pyrrolizin-7a(5H)-yl)methoxy)quinazolin-7-yl)-1H-indole-4-carbaldehyde], the values for the IC50 in test [1] and in test [2] were 0.0001 to 10 µM and 10 to 100 µM, respectively.
For `Fc1c(-c2c[nH]c3cccc(C(F)F)c23)ccc2c(N3C[C@H]4CC[C@@H](C3)N4)nc(OCC34CCCN3CCC4)nc12` [P-0625, 4-((1R,5S)-3,8-diazabicyclo[3.2.1]octan-3-yl)-7-(4-(difluoromethyl)-1H-indol-3-yl)-8-fluoro-2-((tetrahydro-1H-pyrrolizin-7a(5H)-yl)methoxy)quinazoline] the same measures were 0.0001 to 10 µM and 0.0001 to 10 µM.
Turning to `Cc1[nH]c2ccccc2c1-c1ccc2c(N3C[C@H]4CC[C@@H](C3)N4)nc(OCC34CCCN3CCC4)nc2c1F` [P-0626, 4-((1R,5S)-3,8-diazabicyclo[3.2.1]octan-3-yl)-8-fluoro-7-(2-methyl-1H-indol-3-yl)-2-((tetrahydro-1H-pyrrolizin-7a(5H)-yl)methoxy)quinazoline], the IC50 was in the range of 0.0001 to 10 µM in test [1] and 10 to 100 µM in test [2].
Turning to `CNC(=O)CN1[C@@H]2CC[C@H]1CN(c1nc(OCC34CCCN3CCC4)nc3c(F)c(-c4cc(O)cc5ccccc45)ccc13)C2` [P-0627, 2-((1R,5S)-3-(8-fluoro-7-(3-hydroxynaphthalen-1-yl)-2-((tetrahydro-1H-pyrrolizin-7a(5H)-yl)methoxy)quinazolin-4-yl)-3,8-diazabicyclo[3.2.1]octan-8-yl)-N-methylacetamide], the IC50 in test [1] and in test [2] was 0.0001 to 10 µM in each case.
As for `OCCCN1[C@@H]2CC[C@H]1CN(c1nc(OCC34CCCN3CCC4)nc3c(F)c(-c4cc(O)cc5ccccc45)ccc13)C2` [P-0628, 4-(8-fluoro-4-((1R,5S)-8-(3-hydroxypropyl)-3,8-diazabicyclo[3.2.1]octan-3-yl)-2-((tetrahydro-1H-pyrrolizin-7a(5H)-yl)methoxy)quinazolin-7-yl)naphthalen-2-ol], the IC50 in test [1] and in test [2] was 0.0001 to 10 µM each time.
`OCC1CN(c2nc(N3C[C@H]4CC[C@@H](C3)N4)c3ccc(-c4cc(O)cc5ccccc45)c(F)c3n2)CC1O` (stereo partly drawn) [P-0629, 1-(4-((1R,5S)-3,8-diazabicyclo[3.2.1]octan-3-yl)-8-fluoro-7-(3-hydroxynaphthalen-1-yl)quinazolin-2-yl)-4-(hydroxymethyl)pyrrolidin-3-ol]: the half-maximal inhibitory concentration (IC50) lay within 0.0001 to 10 µM in test [1] and 10 to 100 µM in test [2].
As to `CN(C)C(C)(C)CNc1nc(N2C[C@H]3CC[C@@H](C2)N3)c2ccc(-c3cc(O)cc4ccccc34)c(F)c2n1` [P-0630, 4-(4-((1R,5S)-3,8-diazabicyclo[3.2.1]octan-3-yl)-2-((2-(dimethylamino)-2-methylpropyl)amino)-8-fluoroquinazolin-7-yl)naphthalen-2-ol], the IC50 in test [1] fell in the range of 0.0001 to 10 µM; in test [2], 10 to 100 µM.
Take `Oc1cc(-c2ccc3c(N4C[C@H]5CC[C@@H](C4)N5)nc(NCC45CCCN4CCC5)nc3c2F)c2ccccc2c1` [P-0631, 4-(4-((1R,5S)-3,8-diazabicyclo[3.2.1]octan-3-yl)-8-fluoro-2-(((tetrahydro-1H-pyrrolizin-7a(5H)-yl)methyl)amino)quinazolin-7-yl)naphthalen-2-ol]: the half-maximal inhibitory concentration (IC50) in test [1] is 0.0001 to 10 µM; in test [2] it was 10 to 100 µM.
For `Oc1cc(-c2ccc3c(N4C[C@H]5CC[C@@H](C4)N5)nc(N4CC(N5CC(O)C5)C4)nc3c2F)c2ccccc2c1` [P-0632, 1′-(4-((1R,5S)-3,8-diazabicyclo[3.2.1]octan-3-yl)-8-fluoro-7-(3-hydroxynaphthalen-1-yl)quinazolin-2-yl)-[1,3′-biazetidin]-3-ol] the same measures were 0.0001 to 10 µM and 0.0001 to 10 µM.
With `Oc1cc(-c2ccc3c(N4C[C@H]5CC[C@@H](C4)N5)nc(N4CC(O)C4)nc3c2F)c2ccccc2c1` [P-0633, 1-(4-((1R,5S)-3,8-diazabicyclo[3.2.1]octan-3-yl)-8-fluoro-7-(3-hydroxynaphthalen-1-yl)quinazolin-2-yl)azetidin-3-ol], the IC50 in test [1] lay in the range of 0.0001 to 10 µM; in test [2] it was 100 to 1000 µM.
Take `OCC1CCN(c2nc(N3C[C@H]4CC[C@@H](C3)N4)c3ccc(-c4cc(O)cc5ccccc45)c(F)c3n2)C1` (stereo partly drawn) [P-0634, 4-(4-((1R,5S)-3,8-diazabicyclo[3.2.1]octan-3-yl)-8-fluoro-2-(3-(hydroxymethyl)pyrrolidin-1-yl)quinazolin-7-yl)naphthalen-2-ol]: the values for the half-maximal inhibitory concentration (IC50) in test [1] and in test [2] were 0.0001 to 10 µM and 100 to 1000 µM, respectively.
For `CN(C)C1(C)CN(c2nc(N3C[C@H]4CC[C@@H](C3)N4)c3ccc(-c4cc(O)cc5ccccc45)c(F)c3n2)C1` [P-0635, 4-(4-((1R,5S)-3,8-diazabicyclo[3.2.1]octan-3-yl)-2-(3-(dimethylamino)-3-methylazetidin-1-yl)-8-fluoroquinazolin-7-yl)naphthalen-2-ol] the same measures were 0.0001 to 10 µM and 10 to 100 µM.
